Ends that are not written are not given here.
Experiments:
[1] = system: human umbilical vein endothelial cells (HUVEC)
[2] = system: human bronchial epithelial cells (BEAS-2B)
Description: (§1) The cytotoxicity of 73 synthetic peptides was evaluated using four human cell lines: human pancreatic ductal epithelial cells (HPNE), human embryonic kidney cells (HEK293T), human umbilical vein endothelial cells (HUVEC), and human bronchial epithelial cells (BEAS-2B). When cell density reached 70% confluence, the complete culture medium was replaced with serum-free maintenance medium, and peptides were added at a final concentration of 100 μM for 36 h. Control groups received only serum-free maintenance medium without peptides. Cell proliferation was assessed using the CCK-8 assay kit (Solarbio, CA1210) according to the manufacturer’s instructions.

[3] = system: human embryonic kidney cells (HEK293T)
[4] = Electronic tongue analysis (Taste-Sensing System SA 402B); design: unit not given here; conditions: reference solution 30 mM KCl + 0.3 mM tartaric acid as baseline, first measurement excluded; for Umami: sensor AAE; for Umami / Bitter / Sweet: detection threshold 0, room temperature; for Umami / Bitter / Sour / Salty: four replicates; for Sour: detection threshold -13, room temperature; for Salty: detection threshold -6, room temperature; for Sweet: measured five times
Description: Taste characteristics were analyzed using the electronic tongue system E-tongue (Taste-Sensing System SA 402B, Intelligent Sensor Technology Co. Ltd., Japan). The system was equipped with five specific sensor probes for detecting sourness (CA0), saltiness (CT0), bitterness (C00), sweetness (GL1), and umami (AAE). Samples were tested at concentrations of 0.1 mg/mL and 1.0 mg/mL. Prior to experiments, sensors were activated by immersion in a reference solution (30 mM KCl and 0.3 mM tartaric acid) for 24 h. A 30 min self-diagnostic procedure was performed before each measurement to ensure data accuracy. The reference solution served both as a cleaning solution and standard solution for taste signal calibration. According to the manufacturer’s instructions, using the reference solution as baseline, the detection thresholds were set at −13 for sourness, −6 for saltiness, and 0 for other taste modalities. Two cleaning solutions were employed for electrode maintenance: (1) 30% ethanol solution containing 100 mM HCl for negative charge reference electrodes, and (2) 30% ethanol solution containing 100 mM KCl and 10 mM KOH for positive charge reference electrodes. All taste measurements were performed at room temperature with four replicates, except for sweetness which was measured five times. The first measurement data were excluded from analysis.

[5] = system: human pancreatic ductal epithelial cells (HPNE)
Description: as §1

Substance	Average cell viability, HUVEC [1]	Cell viability, HUVEC, Data1 [1]	Cell viability, HUVEC, Data2 [1]	Cell viability, HUVEC, Data3 [1]	Average cell viability, BEAS-2B [2]	Cell viability, BEAS-2B, Data1 [2]	Cell viability, BEAS-2B, Data2 [2]	Cell viability, BEAS-2B, Data3 [2]	Average cell viability, HEK293T [3]	Cell viability, HEK293T, Data1 [3]	Cell viability, HEK293T, Data2 [3]	Cell viability, HEK293T, Data3 [3]	Umami ([4]; peptide 0.1 mg/mL)	Umami ([4]; peptide 1 mg/mL)	Bitter ([4]; sensor C00, peptide 0.1 mg/mL)	Bitter ([4]; sensor C00, peptide 1 mg/mL)	Sour ([4]; sensor CA0, peptide 0.1 mg/mL)	Sour ([4]; sensor CA0, peptide 1 mg/mL)	Salty ([4]; sensor CT0, peptide 0.1 mg/mL)	Salty ([4]; sensor CT0, peptide 1 mg/mL)	further results
AWDGQ [TaPep73]	105.51	111.28	115.27	89.97	106.58	95.61	116.85	107.28	106.97	104.20	108.17	108.55	0.77	-5.41	7.64	4.33	-1.22	13.38	-19.69	8.78	Sweet ([4]; sensor GL1, peptide 0.1 mg/mL): 4.76; Sweet ([4]; sensor GL1, peptide 1 mg/mL): -5.09; Average cell viability, HPNE [5]: 107.55; Cell viability, HPNE, Data1 [5]: 109.82; Cell viability, HPNE, Data2 [5]: 117.40; Cell viability, HPNE, Data3 [5]: 95.44
DAAEK [TaPep2]	95.40	97.15	96.19	92.84	107.18	116.05	111.86	93.62	92.18	95.02	84.13	97.38	1.21	-4.05	7.88	2.74	-2.30	12.60	-19.03	13.52	Sweet ([4]; sensor GL1, peptide 0.1 mg/mL): 6.09; Sweet ([4]; sensor GL1, peptide 1 mg/mL): -5.50; Average cell viability, HPNE [5]: 105.52; Cell viability, HPNE, Data1 [5]: 116.01; Cell viability, HPNE, Data2 [5]: 111.51; Cell viability, HPNE, Data3 [5]: 89.05
DAELDK [TaPep34]	96.25	90.61	95.80	102.34	99.04	114.56	90.63	91.92	101.89	98.04	102.49	105.14	0.43	-4.87	7.62	3.25	-0.52	15.34	-17.51	13.63	Sweet ([4]; sensor GL1, peptide 0.1 mg/mL): 5.08; Sweet ([4]; sensor GL1, peptide 1 mg/mL): -6.74; Average cell viability, HPNE [5]: 103.89; Cell viability, HPNE, Data1 [5]: 99.83; Cell viability, HPNE, Data2 [5]: 96.64; Cell viability, HPNE, Data3 [5]: 115.21
DFKEELPK [TaPep42]	100.96	109.77	97.95	95.16	106.12	95.21	103.99	119.14	100.35	101.45	95.30	104.29	0.30	-6.40	7.41	2.96	-0.03	16.30	-15.26	15.72	Sweet ([4]; sensor GL1, peptide 0.1 mg/mL): 3.04; Sweet ([4]; sensor GL1, peptide 1 mg/mL): -6.66; Average cell viability, HPNE [5]: 106.29; Cell viability, HPNE, Data1 [5]: 109.92; Cell viability, HPNE, Data2 [5]: 101.63; Cell viability, HPNE, Data3 [5]: 107.32

From article PMC12543283, “TastepepAI: An artificial intelligence platform for taste peptide de novo design” (PLOS Computational Biology, 2025)
